Patent US5747503A, “Selective inhibitors of biogenic amine transporters” (priority 1996, dated 1998)
Entries after “also recorded” stand apart in the source; their conditions may differ. Where two headings read alike, the source gives them in different places.

How the values were obtained:
[1] = biological target: PCP site 1; assay: [^3 H](+)-MK801 binding to PCP site 1; set-up: species or system guinea pig
Method: Large batches of frozen membranes were prepared with minor modifications of published procedures (Rothman, et al. (1989), supra). Twenty to thirty frozen guinea pig brains with cerebellum were thawed for 15 minutes and homogenized with a Polytron in ice-cold 5 mM Tris-HCl, pH 8.0 (10 ml/brain). The homogenate was centrifuged at 37,000×g for 10 minutes, and the pellet was washed by resuspension in the same volume of buffer followed by recentrifugation. The pellets were resuspended in an equal volume of 5 mM Tris-HCl, pH 8.0, and the concentration was adjusted to 50 mM by the addition of 1M Tris-HCl, pH 8.0. The homogenate was centrifuged for 10 min at 37,000×g. The pellets were then washed three times by resuspension and centrifugation using 50 mM Tris-HCl, pH 8.0. The final pellets were resuspended in the Tris-HCl buffer (0.5 ml/brain), pooled and 1 ml aliquots were distributed to microfuge tubes, which were stored at -70° for assay. […]
(§1) Inhibition curves were fit to the two parameter logistic equation for the best-fit estimates of the IC50 using nonlinear least squares curve fitting methods as previously described (Rothman et al. (1993), supra); Jones, S. M. and Rogawski, M. A. Mol. Neuropharmacol. 2: 303-310 (1992)).
(§2) ^a The binding assays for PCP (site 2) and PCP (site 1) were conducte
(§3) as previously reported (Rothman, R. B., et al., In: Multiple Sigma and PC
(§4) Receptor Ligands: Mechanisms for Neuromodulation and Protection 307-330
(§5) (Domino, E. F. and Kamenka, J. M., eds., 1992) using [^3 H]TCP in the
(§6) presence of (+)MK801 for site 2 and [^3 HMK801 for site 1 except that

[2] = system: [^3 H]5-HT uptake; assay: Synaptosomal [^3 H]5-HT uptake inhibition; format: biochemical, rat; conditions: for IC50: Table 2, nM ± SD, whole rat brain minus cerebellum synaptosomes
Method: Synaptosomal uptake assays were carried out as described (Rothman et al. (1993), supra). Briefly, synaptosomes were prepared by homogenization of rat striatum (for [^3 H]DA reuptake) or whole rat brain minus cerebellum (for [^3 H]5-HT reuptake) in ice-cold 10% sucrose, using a Potter-Elvehjem homogenizer. After a 1000×g centrifugation for 10 min at 4° C., the supernatants were retained on ice. The uptake assays were initiated by the addition of 100 μl of synaptosomes to 12×75 mm polystyrene test tubes, which were prefilled with 750 μl of [^3 H]ligand (2 nM [^3 H]5-HT or 5 nM [^3 H]DA) in a Krebs-phosphate buffer (pH 7.4), which contained ascorbic acid (1 mg/ml) and pargyline (50 μM) (buffer), 100 μl of test drugs made up in buffer containing 1 mg/ml bovine serum albumin, and 50 μl of buffer. The [^3 H]5-HT reuptake experiments were conducted in the presence of 100 nM nomifensine and […] GBR12935 in order to block any possible reuptake into NE and DA nerve terminals. […] The nonspecific uptake of each [^3 H]ligand was measured by incubations in the presence of 1 μM GBR12909 ([^3 H]DA) and 10 μM fluoxetine ([^3 H]5-HT). The incubations were terminated after a 15 min ([^3 H]DA) or 30 min ([^3 H]5-HT) incubation at 25° C. by adding 4 ml of wash buffer (10 mM TRIS-HCl, pH 7.4 containing 0.9% NaCl at 25° C.), followed by rapid filtration over Whatman GF/B filters and one additional wash cycle. […] The Krebs-phosphate buffer contained 154.5 mM NaCl, 2.9 mM KCl, 1.1 mM CaCl2, 0.83 mM MgCl2 and 5 mM glucose. The tritium retained on the filters was counted, in a Taurus beta counter, after an overnight extraction into ICN Cytoscint cocktail.
as §1
Synaptosomal uptake and ligand binding assays were conducted as described
above. Preliminary experiments were conducted to determine the doserange
Each [^3 H] ligand was displaced
by 10 concentrations of test drug. The data of two experiments were
pooled, and fit to the two parameter logistic equation for the bestfit
estimates of the IC50 reported above.

[3] = system: PCP site 2; format: binding, guinea pig
Method: Large batches of frozen membranes were prepared with minor modifications of published procedures (Rothman, et al. (1989), supra). Twenty to thirty frozen guinea pig brains with cerebellum were thawed for 15 minutes and homogenized with a Polytron in ice-cold 5 mM Tris-HCl, pH 8.0 (10 ml/brain). The homogenate was centrifuged at 37,000×g for 10 minutes, and the pellet was washed by resuspension in the same volume of buffer followed by recentrifugation. The pellets were resuspended in an equal volume of 5 mM Tris-HCl, pH 8.0, and the concentration was adjusted to 50 mM by the addition of 1M Tris-HCl, pH 8.0. The homogenate was centrifuged for 10 min at 37,000×g. The pellets were then washed three times by resuspension and centrifugation using 50 mM Tris-HCl, pH 8.0. The final pellets were resuspended in the Tris-HCl buffer (0.5 ml/brain), pooled and 1 ml aliquots were distributed to microfuge tubes, which were stored at -70° for assay.
The [^3 H]TCP binding assay for PCP site 2 was conducted with minor modifications of published protocols (Rothman, et al. (1989), supra). Briefly, 12×75 mm polystyrene test tubes were prefilled with 100 μl of [^3 H]TCP (2 nM final concentration) in a protease inhibitor cocktail (PIC) containing 5000 nM (+) -MK801, 100 μl of distilled H2 O or drug (in distilled H2 0), 50 μl of buffer (5 mM Tris-HCL, pH 8.0), and 750 μl of membrane (0.5-1.0 mg/ml protein, in 5 mM Tris-HCl, pH 8.0). […] The protease inhibitor cocktail was composed of 25 μg/ml leupeptin, 25 μg/ml chymostatin, 0.1 mM EDTA, and 0.1 mM ethylene glycol-bis-(beta-aminoethyl-ether)-N,N,N',N'-tetraacetic acid (EGTA). The incubation time was 18-24 hours at 4° C. (steady state) in a final volume of 1 ml. Triplicate samples were filtered with an MR24 Brandel Cell Harvester and washed with two 5 ml aliquots of ice cold buffer. Whatman GF/B filters were presoaked in buffer containing 2% polyethylenimine. The tritium retained on the filters was measured using a Taurus scintillation counter at 44% efficiency after an overnight extraction into ICN Cytoscint cocktail. Non specific binding was determined using 10 μM of TCP. Protein was determine using the method of Lowry, et al., supra.
as §1, §2, §3, §4, §5, §6
the [^3 H]TCP assays were terminated after 18-24 hours of incubation

[4] = Table 1, [^3 H]TCP in presence of (+)MK801, 18-24 hours at 4° C.

With `CN1[C@H](Cc2ccccc2)C[C@H]2Cc3ccccc3[C@H]21` (relative stereo) [RTI-4793-14, (2RS, 3aSR, 8aRS)-1,2,3a,8,8a-Hexahydro-2-benzyl-1-methyl-indeno[1,2-b]pyrrole] the IC50 [1] was greater than 36000 nM, the “affinity for PCP site 1 in words” value [1] was “low affinity” and the IC50 ([1]; Table 1, [^3 H]MK801) was greater than 20000 nM. For the same compound, the IC50 ([1]; Table 2, nM ± SD) was greater than 36000 nM, the IC50 ([1]; Table 3, guinea pig membranes) was greater than 2000 nM and the “[^3 H]5-HT uptake inhibition in words” value [2] was “moderate potency”. For the same compound, the IC50 [2] was 1020 ± 72 nM, the “affinity/selectivity for PCP site 2 in words” value (“affinity/selectivity” below) [3] was “high affinity and selectivity; also recorded: highest affinity for PCP site 2 of any of the drugs tested” and the IC50 [3, 4] was 37.9 nM. The IC50 ([3]; Table 2, nM ± SD) was 37.9 ± 5.7 nM, the IC50 ([3]; Table 3, guinea pig membranes) was 37.9 ± 5.7 nM and the “affinity/selectivity” value ([3]; listed as 3b) was “potent and selective ligand for site 2”.

`C[C@]12N[C@H](Cc3ccccc31)c1ccccc12` [(+)-MK801] was tested, and the “affinity for PCP site 1 in words” value [1] was “high affinity”, the IC50 ([1]; Table 1, [^3 H]MK801) was 4.58 ± 0.19 nM and the IC50 ([1]; Table 2, nM ± SD) was 4.58 ± 0.19 nM. The “greater potency at PCP site 1 than PCP” value ([1]; versus PCP) was 25 fold, the “[^3 H]5-HT uptake inhibition in words” value [2] was “negligible affinity” and the IC50 [2] was greater than 4700 nM. For the same compound, the IC50 [3, 4] was 15900 nM and the IC50 ([3]; Table 2, nM ± SD) was greater than 10000 nM.

With `CNC1CC(c2ccc(Cl)c(Cl)c2)c2ccccc21` (stereo not drawn) [Indatraline] the IC50 [1] was greater than 100000 nM, the “affinity for PCP site 1 in words” value [1] was “negligible affinity” and the IC50 ([1]; Table 2, nM ± SD) was greater than 100000 nM. The “[^3 H]5-HT uptake inhibition in words” value [2] was “potently inhibited; also recorded: potent inhibitor”, the IC50 [2] was 4.49 ± 0.21 nM and the IC50 [3] was 2500 nM. For the same compound, the IC50 ([3]; Table 2, nM ± SD) was 2530 ± 485 nM.

In the case of `c1ccc(C2(N3CCCCC3)CCCCC2)cc1` [PCP, phencyclidine], the IC50 ([1]; Table 1, [^3 H]MK801) is reported as 117 ± 3 nM, the IC50 ([1]; Table 2, nM ± SD) is reported as 117 ± 3 nM and the IC50 [2] is reported as 1420 nM. The “affinity/selectivity” value [3] was “approximately the same potency at both sites; also recorded: moderate and about equal affinity for PCP site 1 and PCP site 2”, the IC50 [3, 4] was 92.4 ± 7 nM and the IC50 ([3]; Table 2, nM ± SD) was 92.4 ± 7 nM.
